The results in this text go back to patent publication US11905417B2, “Anthraquinone compound, liquid crystal composition for dimming including said compound, and dimming element” (Nippon Kayaku Kabushiki Kaisha, priority 2020, dated 2024).

A short description of data set [1]: Evaluation of solubility of compounds in liquid crystal material, photocurable compound, and photopolymerization initiator. Format: physicochemical. To be noted: room temperature, 0.5% steps, tested up to about 3.5% by mass. The procedure:
When a uniform composition with no insoluble matter was obtained, a procedure of further adding 0.005 parts of the compound represented by No. 2, stirring the mixture at room temperature for 1 hour, and then visually observing the appearance of the composition was repeated until a dissolution amount (see the following) reached about 3.5% by mass. The solubility of the compound represented by No. 2 in the liquid crystal material, the photocurable compound, and the photopolymerization initiator was evaluated by the maximum addition amount at which a uniform composition with no insoluble matter was obtained.
When a uniform composition with no insoluble matter was obtained even after 0.030 parts of the compound were added, the maximum dissolution amount was provisionally determined to be “about 3.5% by mass”.

Data set [2] in a line: Evaluation of solubility of compounds in liquid crystal material (maximum dissolution amount, visual observation). To be noted: in liquid crystal material (cyanobiphenyl/terphenyl mixture), room temperature, 0.5% steps, tested up to about 4.5% by mass. Format: physicochemical. The protocol:
When a uniform composition with no insoluble matter was obtained, a procedure of further adding 0.003 parts of the compound represented by No. 2, stirring the mixture at room temperature for 1 hour, and then visually observing the appearance of the composition was repeated until a dissolution amount (see the following) reached about 4.5% by mass. The solubility of the compound represented by No. 2 in the liquid crystal material was evaluated by the maximum addition amount at which a uniform composition with no insoluble matter was obtained.
When a uniform composition with no insoluble matter was obtained even after 0.024 parts of the compound were added, the maximum dissolution amount was provisionally determined to be “about 4.5% by mass”.

Data set [3] can be described thus: Evaluation of contrast of compositions at maximum dissolution amount encapsulated in a cell (C=Ky/Kz at λmax). Conditions: absorption peak wavelength of the composition in the cell. The source says: The compositions obtained in Examples 3 and 4 and Comparative Examples 6 to 10 were each encapsulated in an element made of two upper and lower glass substrates each having a transparent electrode with an inter-substrate gap of 15 μm, in which the surface of each glass substrate in contact with a liquid crystal was rubbed with a polyamide-based resin and was subjected to a homogeneous orientation treatment. When no voltage was applied in the element subjected to the orientation treatment, the liquid crystal was in a homogeneously oriented state, and dye molecules were also in the same orientation according to the host liquid crystal.
Each of the uniform compositions with no insoluble matter, which were obtained in the above-mentioned “Evaluation of Solubilities of Compounds of Examples according to Present Invention and Compounds of Comparative Examples in Liquid Crystal Material” and which were each made in the maximum dissolution amount, was encapsulated in a cell. In the cell in which each of the uniform compositions was encapsulated, a transmittance (Ky) of linearly polarized light parallel to the orientation direction and a transmittance (Kz) of polarized light perpendicular to the orientation direction were measured, and a contrast (C) at its absorption peak wavelength (λmax) was determined from the following expression. C=Ky/Kz

On to `CC(C)(C)c1ccc(Sc2cccc3c2C(=O)c2cccc(Sc4ccc5ccccc5c4)c2C3=O)cc1` [Formula(A)], for which the Maximum dissolution amount in data set [1] is recorded as 0.5% by mass; in data set [2], 1.0% by mass. The “λmax(nm)” value in data set [3] amounted to 462 nm.
Taken in the same sequence, the figures for `CC(CC(=O)Oc1ccc(Sc2cccc3c2C(=O)c2cccc(Sc4ccc(OC(=O)CC(C)CC(C)(C)C)cc4)c2C3=O)cc1)CC(C)(C)C` (stereo not drawn) [Formula(D)] were 1.0% by mass, 2.0% by mass and 462 nm.
`CCCCCC(C)CCC(=O)Oc1ccc(Sc2cccc3c2C(=O)c2cccc(Sc4ccc(OC(=O)CCC(C)CCCCC)cc4)c2C3=O)cc1` (stereo not drawn) [Formula(E)]: the Maximum dissolution amount in data set [1] is 1.0% by mass; in data set [2], 2.0% by mass. The “λmax(nm)” value in data set [3] amounted to 460 nm.
`CCCCCCCCC(CCCCCC)C(=O)Oc1ccc(Sc2cccc3c2C(=O)c2cccc(Sc4ccc(OC(=O)C(CCCCCC)CCCCCCCC)cc4)c2C3=O)cc1` (stereo not drawn) [No.2]: the figures for the Maximum dissolution amount in data set [1] and in data set [2] were 3.5% by mass and 4.5% by mass, respectively. In addition, the “λmax(nm)” value in data set [3] came out at 460 nm.
Taken in the same sequence, the figures for `CCCCC(CC)C(=O)Oc1ccc(Sc2cccc3c2C(=O)c2cccc(Sc4ccc(OC(=O)C(CC)CCCC)cc4)c2C3=O)cc1` (stereo not drawn) [No.3] were 3.5% by mass, 3.5% by mass and 462 nm.
